Test results taken from patent US20090025102A1, “GLUTAMATE RECEPTOR […] AND PROTEINS FOR ENHANCING NITROGEN U[…] CROP PLANTS” (PIONEER HI-BRED INTERNATIONAL, INC., priority 2007, published 2009).

Tests used:
[1] = system: AtGLR-AP knockout lines; assay: Germination bioassay with the iGLR antagonist DNQX; format: in vivo, Arabidopsis
Procedure: Therefore we used a similar approach to test the sucrose sensitivity of the homozygous AtGLR-APs lines described above by conducting vertical plate assays on MS plates minus N and supplemented with increasing concentrations of sucrose. […] We also developed a short term N-sensitivity bioassay.
Bioassay, iGLR Antagonist DNQX
However, germination of the GRASP2.1-1 line was not affected when DNQX was added to the media.

[2] = system: PSD1.1 and PSD2.1 KO plants; assay: Growth assay of PSD1.1 and PSD2.1 KO plants on media containing DNQX; format: in vivo, Arabidopsis; details: 200 or 400 μM DNQX and 3% sucrose, 7 days
Procedure: Growth assays for the PSD1.1 and PSD2.1 KO plants were undertaken. Plants were sown on different media, refrigerated overnight, then incubated in the standard growth conditions for 7 days. The short vernalization was used as that is what has been typically used in this lab for DNQX experiments. […] When grown in the presence of 3% sucrose, both on MS and media lacking nitrogen PSD1.1 and PSD2.1 looks similar to Col-0.

[3] = system: AtGLR-AP knockout lines; details: lines deficient in AtGLR1.1, uM 200, previously demonstrated; cited from earlier work

O=c1[nH]c2cc([N+](=O)[O-])c([N+](=O)[O-])cc2[nH]c1=O [DNQX, 6,7-dinitroquinoxaline-2,3-[1H,4H]-dione]
germination when DNQX was added to the media ([1]; GRASP2.1-1 line): not affected | germination on media supplemented DNQX ([1]; GRASP2.3-6 line): noticeable reduction in germination | decrease in germination ([1]; PSD1.1 knockout, 200 uM DNQX): 35-40% | difference between Col-0 and the two KO lines [2]: No obvious difference | sensitivity of Arabidopsis lines deficient in AtGLR1.1 to the iGLR antagonist [3]: sensitive
